Measurements: patent publication US7781186B2, “Screening methods using normal human liver cell line” (The United States of America as represented by the …, priority 2000, dated 2010)

Experiments:
HepG2 cells = format: cell-based, human
Excerpt: (§1) The cell line of the invention can further be used in a method for assessing toxicity of chemicals or drugs using methods known in the art. For example, lactate dehydrogenase (LDH) leakage from cells into the culture medium is an established method to assess cell injury. Enzyme activity in the culture medium following exposure of cells to a chemical for a certain time will be expressed as percentage of the total of intra- and extracellular enzyme activity. Another example is the determination of cytochrome c release from mitochondria into the cytosol, which is a measure of mitochondria-mediated induction of lethal cell injury. Cells can be exposed to various concentrations of a chemical for various time points. The cells can then be harvested, homogenized, and mitochondria and cytosol isolated by differential centrifugation. The subcellular fractions can then be lysed, loaded onto SDS-PAGE gels, and probed with a specific antibody against cytochrome c.
To determine whether HC04 cells would respond to a standard hepatotoxicant in vitro, the concentration- and time-dependent toxicity of acetaminophen (APAP) was assessed and compared to that in HepG2 cells.

[1] = system: mitochondrial permeability transition pore; experiment: Membrane permeability transition (mPT), large amplitude swelling at 540 nm, isolated liver mitochondria; format: biochemical, mouse
Method: To explore whether LEF (the prodrug) or its active metabolite A77-1726 alter mitochondrial function including the Ca^2+ dependent, cyclosporine A-sensitive mPT, we isolated mouse liver mitochondria and exposed them to LEF or A77-1726, and measured the concentration-dependent effects on the mitochondrial inner transmembrane potential (ΔΨm) using the cationic fluorescent probe, JC-1. Furthermore, the effects on the inductin of the mPT were assessed by monitoring large amplitude swelling at 540 nm. In addition, the effects of LEF were determined in cultured immortalized human hepatocytes (HC04 cell line).

mouse liver mitochondria = experiment: Mitochondrial inner transmembrane potential (ΔΨm), JC-1 probe, isolated liver mitochondria; format: biochemical; conditions: in vitro
Method: To explore whether LEF (the prodrug) or its active metabolite […]-1726 alter mitochondrial function including the Ca^2+ dependent, cyclosporine A-sensitive mPT, we isolated mouse liver mitochondria and exposed them to LEF or […]-1726, and measured the concentration-dependent effects on the mitochondrial inner transmembrane potential (ΔΨm) using the cationic fluorescent probe, JC-1. Furthermore, the effects on the inductin of the mPT were assessed by monitoring large amplitude swelling at 540 nm.

mitochondria = experiment: mPT-mediated cytochrome c release from mitochondria; format: biochemical
Excerpt: as §1
Both LEF and A77-1726 attenuated the ΔΨm (at ≧1 uM).

HC04 cell line = experiment: Acetaminophen-induced mPT-associated cytotoxicity in cultured immortalized human hepatocytes; format: cell-based
Method: Furthermore, the effects on the inductin of the mPT were assessed by monitoring large amplitude swelling at 540 nm. In addition, the effects of LEF were determined in cultured immortalized human hepatocytes (HC04 cell line).

SMILES	LDH release (indicative of cell injury) (HepG2 cells)	inhibition of the mPT (summary) ([1]; in vitro)	protection from the mPT ([1]; mPT caused by KH2PO4 (2 mM))	protection from the mPT ([1]; mPT caused by nimesulide (30 uM))	uncoupling (summary) (mouse liver mitochondria)	protection from mPT-mediated cytochrome c release from mitochondria (mitochondria)	protection from acetaminophen-induced mPT-associated cytotoxicity (HC04 cell line)
CC(=O)Nc1ccc(O)cc1 [APAP, acetaminophen]	did not respond						
Cc1oncc1C(=O)Nc1ccc(C(F)(F)F)cc1 [LEF, Leflunomide]		potent inhibitors	completely protected	completely protected	weak uncouplers	protected	completely protected
